Laboratory results: US10640748B2, “Oligodendroglial cell culturing methods and in methods for treating neurodegenerative disorders by using thyroid hormones or analogues” (NeuOrphan Pty Ltd, priority 2014, dated 2020)
Entries after “also recorded” stand apart in the source; their conditions may differ.

Columns and labels:
[1] = system: Pre-OLs from Nkx2.1-GFP+ sorted cultures at stage VI; test: Cell cycle analysis with BrdU (flow cytometry); format: cell-based, human
Description: BrdU cell cycle analysis was performed according to the manufacturer's protocol (BD Biosciences). For a detailed protocol, see Supplemental Experimental Procedures.
Pre-OLs from Nkx2.1-GFP+ sorted cultures at stage VI day 7 and day 21 were pulsed with BrdU for 1 hour. Cells were then treated with DNAse I for 45 minutes then collected using accutase (Life Technologies). Collected cells were fixed and permeabilized and stained with anti-BrdU conjugated with APC for 30 minutes at 4° C. Cells were washed and stained with 7-AAD. Cells were then analyzed on LSR-Fortessa (BD Biosciences). Unpulsed cells and pulsed cells without anti-BrdU staining served as a negative control.

[2] = system: Nkx2.1-GFP+ sorted cells at stage VI; test: qRT-PCR gene expression in Nkx2.1-GFP+ sorted cells at stage VI treated with T3, DITPA or T3+DITPA; format: cell-based, human
Description: RNA was isolated from cells by using RNeasy Mini Kit (Qiagen) according to the manufacturer's instruction and treated with DNase-I to remove genomic DNA. The concentrations of total RNA were measured by Nanodrop ND-1000 spectrophotometer v3.7 (Thermo Specific) and complementary DNA (cDNA) was synthesized from 1 μg of total RNA using High-Capacity cDNA Reverse Transcription Kit (Applied Biosystems) according to the manufacturer's instructions. Real-Time Quantitative Reverse Transcription Polymerase Chain Reaction (qRT-PCR) was performed with 5-20 ng of cDNA template, 2× Taqman Gene expression master mix and 20× Taqman probes (Life technologies) on ABI Prism 7900HT Sequence detection system (Applied Biosystems). Gapdh served as an endogenous standard control. The qRT-PCR thermo-cycling reaction was 1 cycle at 50° C. for 2 minutes, 1 cycle at 95° C. for 10 minutes and 40 cycles of 95° C. for 15 seconds, then 60° C. for 1 minute. The threshold cycle (CT) value, which represents the cycle at which the first PCR product is detected, was measured in triplicate and normalized against the endogenous control, GAPDH, to determine the ΔCT value. Then the ΔCT values of GFP-positive cells were then standardized against the ΔCT values of undifferentiated hESCs, derived as relative mRNA expression (ΔΔCT).
Bar graphs illustrating the qRT-PCR analyses in FIG. 2, 3, S1-3 representing the log2 of the average fold-change in gene expression compared directly to the undifferentiated Stage I hESC or T3-treated cells at day 7 in FIG. 5 and S5.

[3] = system: Pre-OLs from Nkx2.1-GFP+ sorted cultures at stage VI, day 21; test: Pharmacological blockade of MCT8 with Bosutinib, DAPI+ dead cells by flow cytometry; format: cell-based, human; settings: co-administration of 10 ng/mL DITPA with Bosutinib, 48 hours
Description: (§1) Pre-OLs from Nkx2.1-GFP+ sorted cultures at stage VI, day 21 were treated with the pharmacological inhibitor of MCT8, bosutinib (LC Laboratories, B-1788, reconstituted in dimethyl sulfoxide, [DMSO]) at different concentrations (1 ng/mL, 10 ng/mL and 100 ng/mL) with co-administration of 10 ng/mL DITPA. An MTT assay and flow cytometry were then performed on the cells stained for DAPI after 48 hours of treatment, to analyze DAPI+ dead cells.

[4] = system: Pre-OLs from Nkx2.1-GFP+ sorted cultures at stage VI, day 21; test: MTT-based cytotoxicity assay under Bosutinib MCT8 blockade; format: cell-based, human; settings: Bosutinib with 10 ng/mL DITPA, 48 hours
Description: as §1

[5] = system: rat RGCs and slc16a2 down-regulated OLs from Nkx2.1-GFP+ sorted cells; test: Co-culture myelination assay with slc16a2 down-regulated OLs; format: cell-based, rat; human; settings: slc16a2 down-regulated OLs co-cultured with rat RGCs for 7 days
Source text: Retinae were dissected from P6 Sprague-Dawley rat pups (AEC #1121/2011/M). RGCs were purified according to the published immunopanning protocol (Deliyanti and Wilkinson-Berka, 2015; Watkins et al., 2008). Details of the RGC preparation are described in Supplemental Experimental Procedure. The RGC growth medium was changed every third day and cultures were maintained for 9 days. Pre-OLs from Nkx2.1-GFP+ cells at stage VI day 10, were FACS sorted according to O4 antibody labeling. O4+ sorted cells were then co-cultured with RGCs at a density of 20,000/well under 3 different conditions: T3 with 0.01% ethanol, 10 ng/mL DITPA, and 40 ng/mL T3 with DITPA in myelination medium (see Supplemental Experimental Procedure). […]
For quantification of myelination in vitro following knockdown of slc16a2, at least nine fields (×20 objective) were randomly selected and captured from each coverslip with a confocal microscope (Nikon A1 inverted). A myelination index (%) by mCherry+ cells (i.e. axons myelinated by mCherry+ cells) was calculated by: the number of mCherry+/MBP+ membrane, ensheathing the NF200+ axons/the total number of NF200+ axons. Furthermore, the viable ensheathing mCherry+/MBP+ OLs and mature mCherry+ OLs according to their morphology with multiple processes and membranous sheaths were counted and their % calculated.

AHDS patients = settings: cited from earlier work
[6] = compared to T3 treated cultures
[7] = differentiating cultures treated with DITPA

In the case of `O=C(O)CCc1cc(I)c(Oc2ccc(O)cc2)c(I)c1` [DITPA, 3,5-Diiodothyropropionic acid], the cell cycle exit ([1]; compared with T3) is reported as “potentiates cell cycle exit faster than T3”, the “numbers of cells in S phase” value ([1]; day 7, compared with T3 alone) is reported as “significant reduction” and the “cdkn1b (p27) expression” value [2, 6] is reported as “up-regulated”. For the same compound, the “tp53 (p53) expression” value [2, 6] was “up-regulated”, the OL differentiation ([2]; compared with T3) was “promotes OL differentiation” and the dio2 expression ([2]; compared with T3 treatment) was “no significant differences”. For the same compound, the dio3 expression ([2]; compared with T3 treatment) was “no significant differences”, the thrb expression ([2]; compared with T3 treatment) was “no significant differences” and the “slc16a2 (MCT8) expression” value ([2]; day 7, compared with T3) was “significant up-regulation”. For the same compound, the “slc16a10 (MCT10) expression” value ([2]; day 7, compared with T3) was “significant up-regulation”, the plp1 expression ([2]; day 21 of treatment, versus T3 alone) was “substantial up-regulation” and the mbp expression [2, 7] was “up-regulation”. For the same compound, the myt1 expression [2, 7] was “up-regulation”, the plp1 expression [2, 7] was “up-regulation” and the olig1 expression ([2]; following DITPA treatment) was “up-regulated”. For the same compound, the olig2 expression ([2]; following DITPA treatment) was “up-regulated”, the sox10 expression ([2]; following DITPA treatment) was “up-regulated” and the “up-regulation of slc16a10” value ([2]; following DITPA treatment) was about 14 fold. For the same compound, the bmp7 expression ([2]; upon DITPA treatment) was “down-regulation”, the “frzb expression (WNT antagonist)” value ([2]; upon DITPA treatment) was “up-regulation” and the jun expression ([2]; upon DITPA treatment) was “down-regulation”. The “sfrp1 expression (WNT antagonist)” value ([2]; upon DITPA treatment) was “up-regulation”, the “sfrp2 expression (WNT antagonist)” value ([2]; upon DITPA treatment) was “up-regulation” and the tgfb3 expression ([2]; upon DITPA treatment) was “down-regulation”. For the same compound, the “tnfrsf2 (encodes DR6) expression” value ([2]; upon DITPA treatment) was “almost negligible up-regulation”, the wnt5a expression ([2]; upon DITPA treatment) was “down-regulation” and the “cell death (DAPI+ dead cells) under Bosutinib MCT8 blockade” value [3] was “significant reduction in cell death; also recorded: DITPA treatment of differentiating OPCs overcomes the cell death initiated by the”. For the same compound, the “survival rates (MTT assay)” value [4] was “increased survival rates”, the “mCherry+/MBP+ myelinating OLs and mCherry+/MBP+ myelin segments” value [5] was “found” and the hypermetabolism (AHDS patients) was “reduce”. For the same compound, the peripheral hyperthyroidism (AHDS patients) was “normalize”.
